Laboratory results: patent publication US11111251B2, “Positive allosteric modulators of the muscarinic acetylcholine receptor M1” (Vanderbilt University, priority 2016, dated 2021)

Target: T1, human mAChR M1 (Homo sapiens, UniProt P11229)
T1 sequence (P11229 1-460): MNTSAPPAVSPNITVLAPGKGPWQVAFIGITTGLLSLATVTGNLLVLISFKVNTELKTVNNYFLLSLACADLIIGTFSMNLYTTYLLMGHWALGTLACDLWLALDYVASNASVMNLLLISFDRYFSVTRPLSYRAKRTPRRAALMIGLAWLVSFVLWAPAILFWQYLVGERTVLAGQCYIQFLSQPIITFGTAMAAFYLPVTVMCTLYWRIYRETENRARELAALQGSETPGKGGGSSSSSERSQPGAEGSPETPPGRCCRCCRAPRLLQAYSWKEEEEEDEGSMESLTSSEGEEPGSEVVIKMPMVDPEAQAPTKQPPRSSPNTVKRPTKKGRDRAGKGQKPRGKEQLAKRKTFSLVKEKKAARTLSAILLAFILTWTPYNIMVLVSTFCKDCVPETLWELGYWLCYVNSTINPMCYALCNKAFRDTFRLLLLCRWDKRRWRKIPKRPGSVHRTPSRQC
Experiment: mAChR M1 cell-based functional assay: calcium mobilization, positive allosteric modulator mode (increase in EC20 acetylcholine response)
Conditions: Table 2, human M1; for EC50: read-out: Human M1 EC50; for Emax: read-out: Human M1 Emax (%)
From the text: a. Cell Lines Expressing Muscarinic Acetylcholine Receptors
Chinese hamster ovary (CHO-K1) cells stably expressing rat (r)M1 were purchased from the American Type Culture Collection and cultured according to their indicated protocol. CHO cells stably expressing human (h)M2, hM3, and hM5 were described previously (Levey, et al., 1991); hMi and hM4 cDNAs were purchased from Missouri S&T cDNA Resource; rM4 cDNA was provided by T. I. Bonner (National Institutes of Health, Bethesda, Md.). rM2 and rM3 were cloned from a rat brain cDNA library and sequence verified. hMi, rM2, rM3, hM4, and rM4 cDNAs were used to stably transfect CHO-K1 cells purchased from the American Type Culture Collection using Lipofectamine2000. To make stable rM2, hM2, rM3, hM4, and rM4 cell lines for use in calcium mobilization assays, these cells also were stably transfected with a chimeric G-protein (Gqi5) (provided by B. R. Conklin, University of California, San Francisco) using Lipofectamine 2000. rMi, hMi, rM3, hM3, rM5, and hM5 cells were grown in Ham's F-12 medium containing 10% heat-inactivated fetal bovine serum (FBS), 20 mM HEPES, and 50 μg/mL G418 sulfate. rM2-Gqi5, hM2-Gqi5, and hM4-Gqi5 cells were grown in the same medium also containing 500 μg/mL Hygromycin B. Stable rM4-Gqi5 cells were grown in DMEM containing 10% heat-inactivated FBS, 20 mM HEPES, 400 μg/mL G418 sulfate, and 500 μg/mL Hygromycin B.
b. Cell-Based Functional Assay of Muscarinic Acetylcholine Receptor Activity
For high throughput measurement of agonist-evoked increases in intracellular calcium, CHO-K1 cells stably expressing muscarinic receptors were plated in growth medium lacking G418 and hygromycin at 15,000 cells/20 μL/well in Greiner 384-well black-walled, tissue culture (TC)-treated, clear-bottom plates (VWR). Cells were incubated overnight at 37° C. and 5% CO2. The next day, cells were washed using an ELX 405 (BioTek) with four washes (80 μL) of assay buffer then aspirated to 20 μL. Next, 20 μL of 16 μM Fluo-4/acetoxymethyl ester (Invitrogen, Carlsbad, Calif.) prepared as a 2.3 mM stock in DMSO and mixed in a 1:1 ratio with 10% (w/v) Pluronic F-127 and diluted in assay buffer was added to the wells and the cell plates were incubated for 50 min at 37° C. and 5% CO2. Dye was removed by washing with the ELX 405 (four […], washes of assay buffer) then aspirated to 20 μL. Compound master plates were formatted in an 11 point CRC format (1:3 dilutions) in 100% DMSO with a starting concentration of 10 mM using the BRAVO liquid handler (Agilent). Test compound CRCs were then transferred to daughter plates (240 nL) using the Echo acoustic plate reformatter (Labcyte, Sunnyvale, Calif.) and then diluted into assay buffer (40 μL) to a 2× stock using a Thermo Fisher Combi (Thermo Fisher Scientific, Waltham, Mass.).
Calcium flux was measured using the Functional Drug Screening System (FDSS) 6000 (Hamamatsu Corporation, Tokyo, Japan) as an increase in the fluorescent static ratio. Compounds were applied to cells (20 μL, 2×) using the automated system of the FDSS 6000 at 4 s into the 300 s protocol and the data were collected at 1 Hz. At 144 s into the 300s protocol, 10 μL of an EC20 concentration of the muscarinic receptor agonist acetylcholine was added (5×), followed by the addition of 12 μL an EC80 concentration of acetylcholine at the 230 s time point (5×). Agonist activity was analyzed as a concentration-dependent increase in calcium mobilization upon compound addition. Positive allosteric modulator activity was analyzed as a concentration-dependent increase in the EC20 acetylcholine response. Antagonist activity was analyzed as a concentration-dependent decrease in the EC80 acetylcholine response. Concentration-response curves were generated using a four-parameter logistical equation in XLfit curve fitting software (IDBS, Bridgewater, N.J.) for Excel (Microsoft, Redmond, Wash.) or Prism (GraphPad Software, Inc., San Diego, Calif.).

Compound | EC50 | Emax
Cn1cc(-c2ccc(Cc3cc(C(=O)N[C@H]4CCC[C@@H]4O)nc4ccsc34)c(F)c2)cn1 [Compound 56, 7-[[2-fluoro-4-(1-methylpyrazol-4-yl)phenyl]methyl]-N-[(1S,2S)-2-hydroxycyclopentyl]thieno[3,2-b]pyridine-5-carboxamide] | 3.26 µM | 51%
Cc1csc2c(Cc3ccc(-c4ccn(C)n4)cc3)cc(C(=O)N[C@H]3CCOC3)nc12 [Compound 306] | 2.92 µM | 79.3%
Cc1nc(-c2ccc(Cc3cc(C(=O)N[C@H]4CCOC4)nc4ccsc34)cc2)co1 [Compound 161, 7-[[4-(2-methyloxazol-4-yl)phenyl]methyl]-N-[(3S)-tetrahydrofuran-3-yl]thieno[3,2-b]pyridine-5-carboxamide] | 3.51 µM | 78.8%
Cc1ccc(Cc2cc(C(=O)Nc3n[nH]c4ccccc34)nc3ccsc23)cn1 [Compound 65, N-(1H-indazol-3-yl)-7-[(6-methyl-3-pyridyl)methyl]thieno[3,2-b]pyridine-5-carboxamide] | 1.72 µM | 37.3%
Cn1cc(-c2cc(F)c(Cc3cc(C(=O)N[C@H]4CCCC[C@@H]4O)nc4ccsc34)c(F)c2)cn1 [Compound 57, 7-[[2,6-difluoro-4-(1-methylpyrazol-4-yl)phenyl]methyl]-N-[(1S,2S)-2-hydroxycyclohexyl]thieno[3,2-b]pyridine-5-carboxamide] | 2.64 µM | 80.1%
Cc1nc(-c2ccc(Cc3cc(C(=O)N[C@H]4CCC[C@@H]4O)nc4c(C)csc34)cc2)co1 [Compound 331, N-[(1S,2S)-2-hydroxycyclopentyl]-3-methyl-7-[[4-(2-methyloxazol-4-yl)phenyl]methyl]thieno[3,2-b]pyridine-5-carboxamide] | 0.368 µM | 69.7%
Cc1nc(-c2ccc(Cc3cc(C(=O)N[C@@H]4CCOC4)nc4ccsc34)cc2)co1 [Compound 160, 7-[[4-(2-methyloxazol-4-yl)phenyl]methyl]-N-[(3R)-tetrahydrofuran-3-yl]thieno[3,2-b]pyridine-5-carboxamide] | 3.93 µM | 77.5%
Cc1csc2c(Cc3ccc(-n4cccn4)cc3)cc(C(=O)N[C@@H]3CCCC[C@H]3O)nc12 [Compound 116, N-[(1R,2R)-2-hydroxycyclohexyl]-3-methyl-7-[(4-pyrazol-1-ylphenyl)methyl]thieno[3,2-b]pyridine-5-carboxamide] | 0.32 µM | 78.7%
Cn1ccc(-c2ccc(Cc3cc(C(=O)N[C@@H]4CC[C@H]4O)nc4ccsc34)cn2)n1 [Compound 412] | 0.222 µM | 69.1%
O=C(NC1CC2(COC2)C1)c1cc(Cc2ccc(-c3cscn3)cc2)c2sccc2n1 [Compound 231, N-(2-oxaspiro[3.3]heptan-6-yl)-7-[(4-thiazol-4-ylphenyl)methyl]thieno[3,2-b]pyridine-5-carboxamide] | 0.0687 µM | 88.5%
Cn1cc(-c2ccc(Cc3cc(C(=O)N[C@H]4COCC[C@@H]4O)nc4ccsc34)c(F)c2)cn1 [Compound 53, 7-[[2-fluoro-4-(1-methylpyrazol-4-yl)phenyl]methyl]-N-[(3S,4S)-4-hydroxytetrahydropyran-3-yl]thieno[3,2-b]pyridine-5-carboxamide] | 3.07 µM | 79%
Cn1ccc(-c2ccc(Cc3cc(C(=O)N[C@@H]4COCC[C@H]4O)nc4ccsc34)cn2)n1 [Compound 410] | 0.0562 µM | 63.4%
Cn1ccc(-c2ccc(Cc3cc(C(=O)NCC4CCOCC4)nc4ccn(C)c34)cc2)n1 [Compound 476, 1-methyl-7-[[4-(1-methylpyrazol-3-yl)phenyl]methyl]-N-(tetrahydropyran-4-ylmethyl)pyrrolo[3,2-b]pyridine-5-carboxamide] | 0.28 µM | 83.5%
Cc1csc2c(Cc3ccc(-n4cccn4)cc3)cc(C(=O)N[C@@H]3CCCCC[C@H]3O)nc12 [Compound 120, N-[(1R,2R)-2-hydroxycycloheptyl]-3-methyl-7-[(4-pyrazol-1-ylphenyl)methyl]thieno[3,2-b]pyridine-5-carboxamide] | 1.32 µM | 75.3%
Cn1ccc(-c2ccc(Cc3cc(C(=O)N[C@H]4CCCC[C@@H]4O)nc4ccn(C)c34)cn2)n1 [Compound 512, N-[(1S,2S)-2-hydroxycyclohexyl]-1-methyl-7-[[6-(1-methylpyrazol-3-yl)-3-pyridyl]methyl]pyrrolo[3,2-b]pyridine-5-carboxamide; and] | 0.0913 µM | 70.8%
O=C(N[C@H]1COCC[C@@H]1O)c1cc(Cc2ccc(-c3cscn3)cc2)c2sccc2n1 [Compound 216] | 0.022 µM | 81.2%
CC1(O)CCN(C(=O)c2cc(Cc3ccc(-n4cccn4)cc3)c3sccc3n2)CC1 [Compound 82, (4-hydroxy-4-methyl-1-piperidyl)-[7-[(4-pyrazol-1-ylphenyl)methyl]thieno[3,2-b]pyridin-5-yl]methanone] | > 10 µM | 70.4%
Cc1nc(-c2ccc(Cc3cc(C(=O)NC4CCN(C)CC4)nc4ccsc34)cc2)co1 [Compound 164, 7-[[4-(2-methyloxazol-4-yl)phenyl]methyl]-N-(1-methyl-4-piperidyl)thieno[3,2-b]pyridine-5-carboxamide] | 2.55 µM | 74.6%
Cc1nc(-c2ccc(Cc3cc(C(=O)N4CCC(C)(O)CC4)nc4ccsc34)cc2)co1 [Compound 174, (4-hydroxy-4-methyl-1-piperidyl)-[7-[[4-(2-methyloxazol-4-yl)phenyl]methyl]thieno[3,2-b]pyridin-5-yl]methanone] | > 10 µM | 45.1%
Cc1ncc(Cc2cc(C(=O)N[C@@H]3CCOC[C@H]3O)nc3ccsc23)s1 [Compound 137, N-[(3S,4R)-3-hydroxytetrahydropyran-4-yl]-7-[(2-methylthiazol-5-yl)methyl]thieno[3,2-b]pyridine-5-carboxamide] | 0.548 µM | 80.3%
Cn1ccc(-c2ccc(Cc3cc(C(=O)NC4CC(F)(F)C4)nc4ccsc34)cn2)n1 [Compound 420, N-(3,3-difluorocyclobutyl)-7-[[6-(1-methylpyrazol-3-yl)-3-pyridyl]methyl]thieno[3,2-b]pyridine-5-carboxamide] | 0.4 µM | 64.2%
O=C(NC1CCOCC1)c1cc(Cc2ccc(-c3cncs3)cc2)c2sccc2n1 [Compound 394, N-tetrahydropyran-4-yl-7-[(4-thiazol-5-ylphenyl)methyl]thieno[3,2-b]pyridine-5-carboxamide] | 0.233 µM | 65.5%
